Source: PubChem BioAssay AID1963970 (Molecular Pharmacology Branch, DTP, NCI, 2024)
pIC50: −log10 of the molar value.

Tested on: 931267-113-T-J1-PDC multicell spheroid viability
Experiment: Anticancer human tumor 931267-113-T-J1-PDC patient-derived colon adenocarcinoma cell line growth inhibition [PI3K]
Settings: for pIC50: curve of first compound; for viability, T/C: stronger effect = lower value; active = viability on the fitted dose curve at most 10% of control; inactive = the rest
In short: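 Tumor cells were combined with HUVEC and MSCs into spheroids, then dosed with PI3K-inhibitor combinations over half-log ranges capped near clinical Cmax or 10 microM.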

[1] = second compound 0.0316 µM, first compound 0.0316 µM
[2] = second compound 0.0316 µM, first compound 0.1 µM
[3] = second compound 0.0316 µM, first compound 0.316 µM
[4] = second compound 0.0316 µM, first compound 1 µM
[5] = second compound 0.0316 µM, first compound 3.16 µM
[6] = second compound 0.0316 µM, first compound 10 µM
[7] = second compound 0.1 µM, first compound 0.0316 µM
[8] = second compound 0.1 µM, first compound 0.1 µM
[9] = second compound 0.1 µM, first compound 0.316 µM
[10] = second compound 0.1 µM, first compound 1 µM
[11] = second compound 0.1 µM, first compound 3.16 µM
[12] = second compound 0.1 µM, first compound 10 µM
[13] = second compound 0.316 µM, first compound 0.0316 µM
[14] = second compound 0.316 µM, first compound 0.1 µM
[15] = second compound 0.316 µM, first compound 0.316 µM
[16] = second compound 0.316 µM, first compound 1 µM
[17] = second compound 0.316 µM, first compound 3.16 µM
[18] = second compound 0.316 µM, first compound 10 µM
[19] = second compound 1 µM, first compound 0.0316 µM
[20] = second compound 1 µM, first compound 0.1 µM
[21] = second compound 1 µM, first compound 0.316 µM
[22] = second compound 1 µM, first compound 1 µM
[23] = second compound 1 µM, first compound 3.16 µM
[24] = second compound 1 µM, first compound 10 µM
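Also: viability read 7 days after compound addition.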

CC1(C)CCC(Nc2ncc(C(F)(F)F)c(-c3c[nH]c4c(P(C)(C)=O)c(C#N)ccc34)n2)CN1 (stereo unspecified) + CC(Nc1ncnc2nc[nH]c12)c1cc2cccc(Cl)c2c(=O)n1-c1ccccc1
< 5.00: pIC50 (second compound 0.0316 µM) | pIC50 (second compound 0.1 µM) | pIC50 (second compound 0.316 µM) | pIC50 (second compound 1 µM) | pIC50 (second compound 3.16 µM) | pIC50 (second compound 10 µM)
inactive: viability, T/C [1] 107% | viability, T/C [2] 105% | viability, T/C [3] 97% | viability, T/C [4] 88.5% | viability, T/C [5] 90.8% | viability, T/C [6] 74.1% | viability, T/C [7] 114% | viability, T/C [8] 105% | viability, T/C [9] 93.6% | viability, T/C [10] 93.1% | viability, T/C [11] 91.5% | viability, T/C [12] 81.6% | viability, T/C [13] 104% | viability, T/C [14] 104% | viability, T/C [15] 103% | viability, T/C [16] 92.8% | viability, T/C [17] 95.1% | viability, T/C [18] 67.4% | viability, T/C [19] 106% | viability, T/C [20] 100% | viability, T/C [21] 94.6% | viability, T/C [22] 82.7% | viability, T/C [23] 96.5% | viability, T/C [24] 69.5% | viability, T/C (second compound 3.16 µM, first compound 0.0316 µM) 106% | viability, T/C (second compound 3.16 µM, first compound 0.1 µM) 100% | viability, T/C (second compound 3.16 µM, first compound 0.316 µM) 89.4% | viability, T/C (second compound 3.16 µM, first compound 1 µM) 87% | viability, T/C (second compound 3.16 µM, first compound 3.16 µM) 82.6% | viability, T/C (second compound 3.16 µM, first compound 10 µM) 69.5% | viability, T/C (second compound 10 µM, first compound 0.0316 µM) 92.2% | viability, T/C (second compound 10 µM, first compound 0.1 µM) 97% | viability, T/C (second compound 10 µM, first compound 0.316 µM) 80.1% | viability, T/C (second compound 10 µM, first compound 1 µM) 82.5% | viability, T/C (second compound 10 µM, first compound 3.16 µM) 83.1% | viability, T/C (second compound 10 µM, first compound 10 µM) 56.2%

CNC(=O)c1ccc(N2C(=S)N(c3ccc(C#N)c(C(F)(F)F)c3)C(=O)C2(C)C)cc1F + COc1c(OCCCN2CCOCC2)ccc2c3n(c(=NC(=O)c4cnc(N)nc4)nc12)CCN3
> 7.50: pIC50 (second compound 1 µM)
< 5.00: pIC50 (second compound 0.00316 µM) | pIC50 (second compound 0.01 µM) | pIC50 (second compound 0.0316 µM) | pIC50 (second compound 0.1 µM)
inactive: viability, T/C (second compound 0.00316 µM, first compound 0.0316 µM) 109% | viability, T/C (second compound 0.00316 µM, first compound 0.1 µM) 107% | viability, T/C (second compound 0.00316 µM, first compound 0.316 µM) 99.3% | viability, T/C (second compound 0.00316 µM, first compound 1 µM) 101% | viability, T/C (second compound 0.00316 µM, first compound 3.16 µM) 104% | viability, T/C (second compound 0.00316 µM, first compound 10 µM) 104% | viability, T/C (second compound 0.01 µM, first compound 0.0316 µM) 105% | viability, T/C (second compound 0.01 µM, first compound 0.1 µM) 93.5% | viability, T/C (second compound 0.01 µM, first compound 0.316 µM) 102% | viability, T/C (second compound 0.01 µM, first compound 1 µM) 92% | viability, T/C (second compound 0.01 µM, first compound 3.16 µM) 100% | viability, T/C (second compound 0.01 µM, first compound 10 µM) 94.2% | viability, T/C [1] 85.2% | viability, T/C [2] 80.7% | viability, T/C [3] 85.7% | viability, T/C [4] 86.8% | viability, T/C [5] 93.2% | viability, T/C [6] 74.4% | viability, T/C [7] 70.8% | viability, T/C [8] 68.5% | viability, T/C [9] 75.7% | viability, T/C [10] 68.5% | viability, T/C [11] 69.1% | viability, T/C [12] 57.8% | viability, T/C [13] 51% | viability, T/C [14] 55.9% | viability, T/C [15] 53.9% | viability, T/C [16] 52% | viability, T/C [17] 46.4% | viability, T/C [18] 40.8% | viability, T/C [19] 36.4% | viability, T/C [20] 38.4% | viability, T/C [21] 39.3% | viability, T/C [22] 34.2% | viability, T/C [23] 36.1% | viability, T/C [24] 30.1%
5.81: pIC50 (second compound 0.316 µM)

Cn1cnc2c(F)c(Nc3ccc(Br)cc3Cl)c(C(=O)NOCCO)cc21 + COc1c(OCCCN2CCOCC2)ccc2c3n(c(=NC(=O)c4cnc(N)nc4)nc12)CCN3
7.85: pIC50 (second compound 0.1 µM)
active: viability, T/C (second compound 0.00316 µM, first compound 3 µM) 9.54% | viability, T/C (second compound 0.01 µM, first compound 3 µM) 8.03% | viability, T/C (second compound 0.0316 µM, first compound 0.949 µM) 10.3% | viability, T/C (second compound 0.0316 µM, first compound 3 µM) 5.43% | viability, T/C (second compound 0.1 µM, first compound 0.949 µM) 7.31% | viability, T/C (second compound 0.1 µM, first compound 3 µM) 4.08% | viability, T/C (second compound 0.316 µM, first compound 0.3 µM) 8.7% | viability, T/C (second compound 0.316 µM, first compound 0.949 µM) 5.28% | viability, T/C (second compound 0.316 µM, first compound 3 µM) 2.51% | viability, T/C (second compound 1 µM, first compound 0.0949 µM) 9.52% | viability, T/C (second compound 1 µM, first compound 0.3 µM) 4.72% | viability, T/C (second compound 1 µM, first compound 0.949 µM) 2.93% | viability, T/C (second compound 1 µM, first compound 3 µM) 1.42%
7.37: pIC50 (second compound 0.0316 µM)
7.09: pIC50 (second compound 0.01 µM)
6.99: pIC50 (second compound 0.00316 µM)
inactive: viability, T/C (second compound 0.00316 µM, first compound 0.00949 µM) 83.7% | viability, T/C (second compound 0.00316 µM, first compound 0.03 µM) 71% | viability, T/C (second compound 0.00316 µM, first compound 0.0949 µM) 51.1% | viability, T/C (second compound 0.00316 µM, first compound 0.3 µM) 31.4% | viability, T/C (second compound 0.00316 µM, first compound 0.949 µM) 18.3% | viability, T/C (second compound 0.01 µM, first compound 0.00949 µM) 88.6% | viability, T/C (second compound 0.01 µM, first compound 0.03 µM) 73.1% | viability, T/C (second compound 0.01 µM, first compound 0.0949 µM) 45% | viability, T/C (second compound 0.01 µM, first compound 0.3 µM) 25.6% | viability, T/C (second compound 0.01 µM, first compound 0.949 µM) 15.3% | viability, T/C (second compound 0.0316 µM, first compound 0.00949 µM) 76.4% | viability, T/C (second compound 0.0316 µM, first compound 0.03 µM) 57% | viability, T/C (second compound 0.0316 µM, first compound 0.0949 µM) 33.7% | viability, T/C (second compound 0.0316 µM, first compound 0.3 µM) 17.5% | viability, T/C (second compound 0.1 µM, first compound 0.00949 µM) 56.4% | viability, T/C (second compound 0.1 µM, first compound 0.03 µM) 37.7% | viability, T/C (second compound 0.1 µM, first compound 0.0949 µM) 19.6% | viability, T/C (second compound 0.1 µM, first compound 0.3 µM) 11.9% | viability, T/C (second compound 0.316 µM, first compound 0.00949 µM) 39.2% | viability, T/C (second compound 0.316 µM, first compound 0.03 µM) 25.2% | viability, T/C (second compound 0.316 µM, first compound 0.0949 µM) 14.3% | viability, T/C (second compound 1 µM, first compound 0.00949 µM) 26.2% | viability, T/C (second compound 1 µM, first compound 0.03 µM) 17.8%
> 8.02: pIC50 (second compound 0.316 µM) | pIC50 (second compound 1 µM)
